Laboratory results taken from article PMC10004634 (PLOS ONE, 2023).
Where two headings read alike, the source gives them in different places.

What was measured:
Experiment in all cases: biochemical
Parameters in all cases: KINOMEscan scanMAX competition binding, DNA-tagged kinases, qPCR read-out, percent control at 300 nM
ANKK1 = ANKK1 (Homo sapiens, UniProt Q8NFD2)
CDK7 = CDK7 (Homo sapiens, UniProt P50613)
CHEK1 = CHEK1 (Homo sapiens, UniProt O14757)
CIT = CIT (Homo sapiens, UniProt O14578)
DDR1 = DDR1 (Homo sapiens, UniProt Q08345)
EGFR(S752-I759del) = EGFR(S752-I759del) (Homo sapiens, UniProt P00533, DEL752-759)
ERK1 = target: T1, ERK1 (Homo sapiens, UniProt P27361)
T1 construct: gene MAPK3

FAK = target: T2, FAK (Homo sapiens, UniProt Q05397)
T2 construct: gene PTK2

IGF1R = IGF1R (Homo sapiens, UniProt P08069)
KIT(V559D,V654A) = KIT(V559D,V654A) (Homo sapiens, UniProt P10721, V559D/V654A)
LKB1 = target: T3, LKB1 (Homo sapiens, UniProt Q15831)
T3 construct: gene STK11

MAP3K2 = MAP3K2 (Homo sapiens, UniProt Q9Y2U5)
MLK1 = target: T4, MLK1 (Homo sapiens, UniProt P80192)
T4 construct: gene MAP3K9

MYLK = MYLK (Homo sapiens, UniProt Q15746)
NEK11 = NEK11 (Homo sapiens, UniProt Q8NG66)
NEK9 = NEK9 (Homo sapiens, UniProt Q8TD19)
PIK3CD = PIK3CD (Homo sapiens, UniProt O00329)
PKMYT1 = PKMYT1 (Homo sapiens, UniProt Q99640)
SRC = SRC (Homo sapiens, UniProt P12931)
ULK3 = ULK3 (Homo sapiens, UniProt Q6PHR2)
ERBB3 = ERBB3 (Homo sapiens, UniProt P21860)
MST4 = target: T5, MST4 (Homo sapiens, UniProt Q9P289)
T5 construct: gene STK26

DYRK2 = DYRK2 (Homo sapiens, UniProt Q92630)
[1] = read-out: Percent control / Acalabrutinib
[2] = read-out: Percent control / Ibrutinib
[3] = read-out: Percent control / Tirabrutinib
[4] = read-out: Percent control / Zanubrutinib

T5 sequence (Q9P289 whole entry): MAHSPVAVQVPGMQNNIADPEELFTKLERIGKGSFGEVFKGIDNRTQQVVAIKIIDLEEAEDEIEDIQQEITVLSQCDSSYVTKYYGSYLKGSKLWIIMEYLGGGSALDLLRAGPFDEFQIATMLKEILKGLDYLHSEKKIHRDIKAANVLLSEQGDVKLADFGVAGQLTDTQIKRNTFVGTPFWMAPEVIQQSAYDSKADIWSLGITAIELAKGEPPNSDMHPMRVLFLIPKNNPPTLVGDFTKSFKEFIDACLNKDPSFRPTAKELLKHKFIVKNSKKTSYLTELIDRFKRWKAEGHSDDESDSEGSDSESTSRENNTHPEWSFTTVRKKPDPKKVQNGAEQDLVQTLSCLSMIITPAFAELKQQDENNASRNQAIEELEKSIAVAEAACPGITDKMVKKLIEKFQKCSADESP
Chain of NEK11 (Q8NG66 whole entry): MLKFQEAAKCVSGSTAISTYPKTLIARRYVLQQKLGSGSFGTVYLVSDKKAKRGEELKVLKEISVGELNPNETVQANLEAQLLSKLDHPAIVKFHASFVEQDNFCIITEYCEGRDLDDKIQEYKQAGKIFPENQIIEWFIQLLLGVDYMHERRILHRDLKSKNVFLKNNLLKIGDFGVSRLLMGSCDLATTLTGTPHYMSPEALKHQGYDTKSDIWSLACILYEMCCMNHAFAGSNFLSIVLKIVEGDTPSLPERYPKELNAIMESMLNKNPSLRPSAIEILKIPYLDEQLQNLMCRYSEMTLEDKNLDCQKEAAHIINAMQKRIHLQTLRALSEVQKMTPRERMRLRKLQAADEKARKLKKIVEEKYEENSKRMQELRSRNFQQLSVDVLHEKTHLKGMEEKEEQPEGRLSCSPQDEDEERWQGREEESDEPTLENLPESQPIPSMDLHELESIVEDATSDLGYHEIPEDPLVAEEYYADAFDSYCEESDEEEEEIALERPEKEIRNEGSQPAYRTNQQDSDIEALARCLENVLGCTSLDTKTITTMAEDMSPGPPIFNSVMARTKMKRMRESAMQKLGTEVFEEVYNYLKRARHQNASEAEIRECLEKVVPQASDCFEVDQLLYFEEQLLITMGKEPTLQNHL
T1 sequence (P27361 whole entry): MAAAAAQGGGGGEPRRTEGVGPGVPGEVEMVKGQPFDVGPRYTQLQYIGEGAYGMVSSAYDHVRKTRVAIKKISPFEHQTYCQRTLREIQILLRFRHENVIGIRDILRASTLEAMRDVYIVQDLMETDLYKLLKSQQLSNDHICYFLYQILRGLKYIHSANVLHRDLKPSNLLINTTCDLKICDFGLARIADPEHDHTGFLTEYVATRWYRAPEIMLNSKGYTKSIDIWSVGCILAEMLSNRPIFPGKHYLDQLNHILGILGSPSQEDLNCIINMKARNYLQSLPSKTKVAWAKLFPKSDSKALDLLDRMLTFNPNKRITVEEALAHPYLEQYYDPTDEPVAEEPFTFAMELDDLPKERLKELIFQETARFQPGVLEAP
T4 sequence (P80192 whole entry): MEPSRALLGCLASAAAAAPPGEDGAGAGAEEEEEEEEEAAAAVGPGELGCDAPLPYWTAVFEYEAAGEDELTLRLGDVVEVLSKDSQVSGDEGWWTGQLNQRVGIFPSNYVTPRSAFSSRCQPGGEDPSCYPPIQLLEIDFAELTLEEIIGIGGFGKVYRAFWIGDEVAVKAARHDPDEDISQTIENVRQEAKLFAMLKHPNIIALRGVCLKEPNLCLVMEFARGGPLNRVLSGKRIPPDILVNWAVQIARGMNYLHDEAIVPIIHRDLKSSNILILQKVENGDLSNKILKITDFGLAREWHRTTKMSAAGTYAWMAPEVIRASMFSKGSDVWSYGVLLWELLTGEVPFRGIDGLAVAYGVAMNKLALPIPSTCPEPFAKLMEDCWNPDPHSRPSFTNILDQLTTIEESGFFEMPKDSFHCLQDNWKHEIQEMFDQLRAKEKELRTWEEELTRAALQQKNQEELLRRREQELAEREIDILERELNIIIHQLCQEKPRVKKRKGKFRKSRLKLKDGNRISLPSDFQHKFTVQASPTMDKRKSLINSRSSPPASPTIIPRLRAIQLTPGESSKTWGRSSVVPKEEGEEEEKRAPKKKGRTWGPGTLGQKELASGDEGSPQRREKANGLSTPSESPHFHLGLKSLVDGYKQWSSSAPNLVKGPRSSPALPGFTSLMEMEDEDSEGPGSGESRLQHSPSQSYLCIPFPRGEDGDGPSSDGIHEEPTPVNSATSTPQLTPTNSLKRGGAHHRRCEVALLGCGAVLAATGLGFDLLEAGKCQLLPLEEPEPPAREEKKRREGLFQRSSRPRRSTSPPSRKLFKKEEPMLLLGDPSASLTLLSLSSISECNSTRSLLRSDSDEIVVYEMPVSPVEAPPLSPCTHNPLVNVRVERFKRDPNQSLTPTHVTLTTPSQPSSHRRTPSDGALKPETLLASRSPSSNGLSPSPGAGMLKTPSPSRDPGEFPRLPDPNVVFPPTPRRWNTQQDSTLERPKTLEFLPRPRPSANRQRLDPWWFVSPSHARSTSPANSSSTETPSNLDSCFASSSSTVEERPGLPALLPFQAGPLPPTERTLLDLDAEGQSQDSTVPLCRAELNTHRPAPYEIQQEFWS
Chain of MYLK (Q15746 whole entry): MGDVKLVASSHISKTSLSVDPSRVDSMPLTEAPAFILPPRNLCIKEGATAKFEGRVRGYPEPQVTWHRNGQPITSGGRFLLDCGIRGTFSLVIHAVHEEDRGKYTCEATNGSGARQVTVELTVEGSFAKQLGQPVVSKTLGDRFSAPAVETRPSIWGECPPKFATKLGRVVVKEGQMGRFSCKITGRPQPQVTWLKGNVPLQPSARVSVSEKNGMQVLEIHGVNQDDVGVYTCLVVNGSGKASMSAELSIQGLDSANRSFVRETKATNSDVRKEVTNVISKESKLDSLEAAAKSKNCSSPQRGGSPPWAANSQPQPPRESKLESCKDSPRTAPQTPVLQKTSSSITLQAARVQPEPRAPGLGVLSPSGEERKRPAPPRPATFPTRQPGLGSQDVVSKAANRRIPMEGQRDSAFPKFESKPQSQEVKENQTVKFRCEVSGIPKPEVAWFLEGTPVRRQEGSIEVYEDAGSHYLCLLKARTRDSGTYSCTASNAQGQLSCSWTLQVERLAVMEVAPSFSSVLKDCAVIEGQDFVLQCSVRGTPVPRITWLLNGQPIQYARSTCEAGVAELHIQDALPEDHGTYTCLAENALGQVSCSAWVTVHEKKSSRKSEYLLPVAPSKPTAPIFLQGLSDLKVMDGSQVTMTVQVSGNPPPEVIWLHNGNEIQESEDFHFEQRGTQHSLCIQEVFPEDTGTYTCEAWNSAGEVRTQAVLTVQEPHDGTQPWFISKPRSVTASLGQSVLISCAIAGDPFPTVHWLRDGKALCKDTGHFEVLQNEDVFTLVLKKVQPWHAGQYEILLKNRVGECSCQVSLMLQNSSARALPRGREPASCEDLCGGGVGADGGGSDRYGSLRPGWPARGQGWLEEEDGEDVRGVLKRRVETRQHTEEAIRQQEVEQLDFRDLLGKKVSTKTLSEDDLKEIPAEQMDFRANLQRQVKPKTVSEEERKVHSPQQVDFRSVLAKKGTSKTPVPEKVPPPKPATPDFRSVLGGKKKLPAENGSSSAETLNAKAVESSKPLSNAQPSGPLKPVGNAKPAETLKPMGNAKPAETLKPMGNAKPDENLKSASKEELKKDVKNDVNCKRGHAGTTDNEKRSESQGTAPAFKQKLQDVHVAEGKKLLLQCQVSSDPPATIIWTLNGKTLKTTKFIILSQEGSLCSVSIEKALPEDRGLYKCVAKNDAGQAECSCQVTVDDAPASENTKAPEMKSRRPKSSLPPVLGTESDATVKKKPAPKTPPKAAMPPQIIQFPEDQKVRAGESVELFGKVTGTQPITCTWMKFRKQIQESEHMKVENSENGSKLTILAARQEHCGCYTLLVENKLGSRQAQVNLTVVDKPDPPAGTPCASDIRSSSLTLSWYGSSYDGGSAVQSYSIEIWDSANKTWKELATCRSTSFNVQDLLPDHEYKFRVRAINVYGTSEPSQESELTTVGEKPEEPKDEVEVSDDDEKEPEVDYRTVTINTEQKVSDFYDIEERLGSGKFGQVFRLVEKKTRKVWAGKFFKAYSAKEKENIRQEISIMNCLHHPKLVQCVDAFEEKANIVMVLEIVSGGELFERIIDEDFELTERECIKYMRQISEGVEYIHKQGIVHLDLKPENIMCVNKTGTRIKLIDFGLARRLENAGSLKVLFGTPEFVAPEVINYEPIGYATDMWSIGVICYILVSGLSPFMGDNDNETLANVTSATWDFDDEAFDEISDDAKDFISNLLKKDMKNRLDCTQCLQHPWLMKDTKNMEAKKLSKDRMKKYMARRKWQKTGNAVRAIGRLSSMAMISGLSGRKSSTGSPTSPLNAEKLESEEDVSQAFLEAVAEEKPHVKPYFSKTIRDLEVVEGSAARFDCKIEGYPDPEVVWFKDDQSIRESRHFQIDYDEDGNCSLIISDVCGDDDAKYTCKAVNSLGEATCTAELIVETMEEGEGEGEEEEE
Chain of SRC (P12931 whole entry): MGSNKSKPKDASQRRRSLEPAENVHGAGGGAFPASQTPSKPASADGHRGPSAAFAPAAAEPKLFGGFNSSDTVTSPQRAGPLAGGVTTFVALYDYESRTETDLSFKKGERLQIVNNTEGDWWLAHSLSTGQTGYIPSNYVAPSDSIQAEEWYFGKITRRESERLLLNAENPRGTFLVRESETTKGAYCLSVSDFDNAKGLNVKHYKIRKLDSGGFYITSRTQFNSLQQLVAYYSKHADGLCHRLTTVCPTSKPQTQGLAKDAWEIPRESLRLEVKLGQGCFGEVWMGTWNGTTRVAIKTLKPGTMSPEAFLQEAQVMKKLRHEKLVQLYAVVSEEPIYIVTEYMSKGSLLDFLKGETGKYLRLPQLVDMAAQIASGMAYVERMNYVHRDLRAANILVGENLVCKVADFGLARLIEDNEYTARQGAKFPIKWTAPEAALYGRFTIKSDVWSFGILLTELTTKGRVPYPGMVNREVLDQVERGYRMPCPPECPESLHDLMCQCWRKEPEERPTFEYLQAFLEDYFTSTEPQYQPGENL

Work on CC#CC(=O)N1CCC[C@H]1c1nc(-c2ccc(C(=O)Nc3ccccn3)cc2)c2c(N)nccn12 [Acalabrutinib] yielded a remaining binding at 0.3 µM (ANKK1; [1]) of 58%, a remaining binding at 0.3 µM (CDK7; [1]) of 68% and a remaining binding at 0.3 µM (CHEK1; [1]) of 88%. For the same molecule, the remaining binding at 0.3 µM (CIT; [1]) was 81%, the remaining binding at 0.3 µM (DDR1; [1]) was 86% and the remaining binding at 0.3 µM (EGFR(S752-I759del); [1]) was 97%. It also gave a remaining binding at 0.3 µM (ERK1; [1]) of 92%, a remaining binding at 0.3 µM (FAK; [1]) of 79% and a remaining binding at 0.3 µM (IGF1R; [1]) of 91%. It also gave a remaining binding at 0.3 µM (KIT(V559D,V654A); [1]) of 94%, a remaining binding at 0.3 µM (LKB1; [1]) of 94% and a remaining binding at 0.3 µM (MAP3K2; [1]) of 97%. It also gave a remaining binding at 0.3 µM (MLK1; [1]) of 92%, a remaining binding at 0.3 µM (MYLK; [1]) of 82% and a remaining binding at 0.3 µM (NEK11; [1]) of 97%. It also gave a remaining binding at 0.3 µM (NEK9; [1]) of 82%, a remaining binding at 0.3 µM (PIK3CD; [1]) of 88% and a remaining binding at 0.3 µM (PKMYT1; [1]) of 94%. The remaining binding at 0.3 µM (SRC; [1]) was 99% and the remaining binding at 0.3 µM (ULK3; [1]) was 91%.

For C=CC(=O)N1CCC[C@@H](n2nc(-c3ccc(Oc4ccccc4)cc3)c3c(N)ncnc32)C1 [Ibrutinib], the remaining binding at 0.3 µM (ERBB3; [2]) was 1.2%, the remaining binding at 0.3 µM (MST4; [2]) was 89% and the remaining binding at 0.3 µM (NEK9; [2]) was 94%.

Molecule CC#CC(=O)N1CC[C@@H](n2c(=O)n(-c3ccc(Oc4ccccc4)cc3)c3c(N)ncnc32)C1 [Tirabrutinib] has a remaining binding at 0.3 µM (DYRK2; [3]) of 99%, a remaining binding at 0.3 µM (EGFR(S752-I759del); [3]) of 96% and a remaining binding at 0.3 µM (SRC; [3]) of 95%.

With C=CC(=O)N1CCC([C@@H]2CCNc3c(C(N)=O)c(-c4ccc(Oc5ccccc5)cc4)nn32)CC1 [Zanubrutinib] the remaining binding at 0.3 µM (ANKK1; [4]) was 100%, the remaining binding at 0.3 µM (CDK7; [4]) was 100% and the remaining binding at 0.3 µM (CHEK1; [4]) was 92%. For the same molecule, the remaining binding at 0.3 µM (CIT; [4]) was 100%, the remaining binding at 0.3 µM (DDR1; [4]) was 100% and the remaining binding at 0.3 µM (DYRK2; [4]) was 81%. For the same molecule, the remaining binding at 0.3 µM (ERBB3; [4]) was 87%, the remaining binding at 0.3 µM (ERK1; [4]) was 87% and the remaining binding at 0.3 µM (FAK; [4]) was 100%. The remaining binding at 0.3 µM (IGF1R; [4]) was 96%, the remaining binding at 0.3 µM (KIT(V559D,V654A); [4]) was 90% and the remaining binding at 0.3 µM (LKB1; [4]) was 84%. For the same molecule, the remaining binding at 0.3 µM (MAP3K2; [4]) was 85%, the remaining binding at 0.3 µM (MLK1; [4]) was 84% and the remaining binding at 0.3 µM (MST4; [4]) was 63%. It also gave a remaining binding at 0.3 µM (MYLK; [4]) of 82%, a remaining binding at 0.3 µM (NEK11; [4]) of 98% and a remaining binding at 0.3 µM (PIK3CD; [4]) of 37%. For the same molecule, the remaining binding at 0.3 µM (PKMYT1; [4]) was 81% and the remaining binding at 0.3 µM (ULK3; [4]) was 82%.
